Experimental data: patent US4001323A, “Water-soluble, non-ionizing hydroxy-containing amide derivatives of 2,4,6-triiodo-isophthalic acid” (Savac AG, priority 1974, dated 1977)
Converted amounts (≈) assume the structure as drawn.

Experiments:
[1] = Solubility in water (Table I); type: physicochemical; details: for solubility: water
Experimental: The following Examples are further illustrative of this invention. All solubility values are in grams per 100 ml unless stated otherwise.

[2] = Solubility in organic solvents; type: physicochemical
Experimental: (§1) 10 Ml of a solution containing 10 g Compound A was stored several days at 4° C, whereby only 2.3 g of the compound was precipitated.

[3] = Storage / supersaturation stability of aqueous solutions; type: physicochemical
Experimental: as §1
The residue was recrystallized from aqueous methanol and consisted of 11.6 g DL-5-α,β-dihydroxypropionylamino-2,4,6-triiodo-isophtalic acid di-(1,3-dihydroxyisopropylamide) (62.5% yield). It sintered and melted at 210° - 230° C and decomposed at 260° C. It gave an Rf value of 0.15 by thin layer chromatography on silica gel with chloroform/methanol/aqueous 25% ammonia 6:3:1. It was identified by elementary analysis for carbon and iodine which yielded values of 25.70% C and 48.29% I against 25.74% and 48.00% respectively calculated for C17 H22 I3 N3 O9.

[4] = Viscosity of aqueous solutions; type: physicochemical
Experimental: Aqueous solutions of Compound A containing 300 and 400 mg iodine respectively had viscosities of 8.95 and 40.6 c.p. at 20°, 4.70 and 16.1 c.p. at 37° C. A low viscosity facilitates injection.

rats = test: Acute intracarotideal toxicity LD50 in rats; type: in vivo; details: 400 mg I per ml, 20 mg I per kg and minute, evaluated after 48 hours
Experimental: (§2) The solutions injected for i.v., i.p., i.ci., and i.ca. toxicity tests contained 400 mg I per ml. The rate of injection was 20 mg I per kg and minute for i.v. and i.ca. toxicity. In the tests for i.ce. toxicity, the injected volume was 5ml/kg, and the concentration was varied. Results of i.v. and i.p. toxicity tests were evaluated after 12 days, results of i.ce. and i.ca. toxicity tests after 48 hours.

rabbits = test: Acute intracisternal toxicity LD50 in rabbits; type: in vivo; details: 400 mg I per ml
Experimental: as §2

[5] = Thermal stability of aqueous solutions; type: physicochemical; design: key to Appearance, initial / Appearance, 30 min. / Appearance, 15 hrs.: (1): Clear solution; (2): Colorless; (3): Slightly colored; (4): Brown suspension, black sediment; details: 400 mg I per ml, under nitrogen, 120° C
Experimental: For a comparison of thermal stability, aqueous solutions of Compounds A and H containing 400 mg I per ml where heated under nitrogen at 120° C. pH, iodide ion concentration and appearance were determined initially, after 30 minutes and after 15 hours.

mice [6] = test: Acute toxicity LD50 in mice (i.v., i.p., i.ce.); type: in vivo; details: for Toxicity, LD50, i.ce.: intracerebral, 5 ml/kg, concentration varied, evaluated after 48 hours; for Toxicity, LD50, i.p.: intraperitoneal; for Toxicity, LD50, i.p. / Toxicity, LD50, i.v.: 400 mg I per ml, evaluated after 12 days; for Toxicity, LD50, i.v.: intravenous, 20 mg I per kg and minute
Experimental: as §2

[7] = cited from earlier work
mice [8] = details: intravenous, literature; cited from earlier work
[9] = in vivo; cited from earlier work
[10] = 20° C, read-out: Solubility in water at 20° C
[11] = 40° C, read-out: Solubility in water at 40° C
[12] = 60° C, read-out: Solubility in water at 60° C

Compound | Solubility in water (in words) [1] | solubility [1, 10] [mg/mL] | solubility [1, 11] [mg/mL] | solubility [1, 12] [mg/mL] | Toxicity, LD50, i.ci. (rabbits) [mg I/kg] | Toxicity, LD50, i.ce. (mice [6]) [mg I/kg] | Toxicity, LD50, i.v. (mice [6]) [mg I/kg] | also measured
5-α-acetoxypropionylamino-2,4,6-triiodo-isophthalic acid di-(2,2-dimethyl-1,3-dioxolan-4-yl-methylamide) | practically insoluble in water |  |  |  |  |  |  | 
CC(O)C(=O)Nc1c(I)c(C(=O)NC(CO)CO)c(I)c(C(=O)NC(CO)CO)c1I (racemic) [Compound B, dl-5-α-hydroxypropionylamino-2,4,6triiodo-isophthalic acid di-(1,3-dihydroxyisopropylamide)] |  | 300 (≈ 386 mM) | 300 (≈ 386 mM) | 320 (≈ 412 mM) |  |  |  | 
C[C@H](O)C(=O)Nc1c(I)c(C(=O)NC(CO)CO)c(I)c(C(=O)NC(CO)CO)c1I [Compound A, L-5-α-Hydroxypropionylamino-2,4,6-triiodo-isophthalic acid di-(1,3-dihydroxyisopropylamide)] | very readily soluble in water | 890 (≈ 1150 mM) | 1040 (≈ 1340 mM) | 1150 (≈ 1480 mM) | 250 | 1500 | 21800 | Solubility in ethanol (in words) ([2]; ethanol): miscible with boiling ethanol; Solubility in methanol ([2]; methanol): practically unlimited; solubility ([2]; organic solvent or mixture, ethanol, room temperature): ~100 mg/mL (≈ 129 mM); Viscosity of aqueous solution, 300 mg iodine, 20° C ([4]; 300 mg iodine, 20° C): 8.95 c.p.; Viscosity of aqueous solution, 300 mg iodine, 37° C ([4]; 300 mg iodine, 37° C): 4.70 c.p.; Viscosity of aqueous solution, 400 mg iodine, 20° C ([4]; 400 mg iodine, 20° C): 40.6 c.p.; Viscosity of aqueous solution, 400 mg iodine, 37° C ([4]; 400 mg iodine, 37° C): 16.1 c.p.; Toxicity, LD50, i.ca. (rats): 6500 mg I/kg; Amount precipitated from aqueous solution on storage ([3]; 10 ml of solution containing 10 g, several days at 4° C): 2.3 g; Appearance, 30 min. [5]: (1) (2); iodide ion concentration, 30 min. [5]: 0.3 mg I' per ml; pH, 30 min. [5]: 7.29; Appearance, 15 hrs. [5]: (1) (3); iodide ion concentration, 15 hrs. [5]: 1.8 mg I' per ml; pH, 15 hrs. [5]: 5.15; Appearance, initial [5]: (1) (2); iodide ion concentration, initial [5]: 0.15 mg I' per ml; pH, initial [5]: 7.43; Toxicity, LD50, i.p. (mice [6]): 20000 mg I/kg
CC(=O)Nc1c(I)c(C(=O)N[C@H]2C(O)O[C@H](CO)[C@@H](O)[C@@H]2O)c(I)c(N(C)C(C)=O)c1I (stereo partly shown) [Compound H, 3-acetylamino-5-N-methyl-acetylamino-2,4,6-triiodobenzoyl-glucosamine, reference compound] |  | ~800 (≈ 1010 mM) |  |  | 100 | 1400 | 10200 | Solubility in water (in words, known compounds) [7]: very soluble in water; i.v. LD50 in mice (F.L. Weitl, 170th Am. Chem. Soc. meeting) (mice [8]): 23800 mg/kg; i.v. LD50 in mice (F.L. Weitl, 170th Am. Chem. Soc. meeting), as iodine (mice [8]): 11400 mg I per kg; Toxicity (in words, known compound) [9]: relatively non-toxic; Appearance, 30 min. [5]: (3); iodide ion concentration, 30 min. [5]: 1.71 mg I' per ml; pH, 30 min. [5]: 6.45; Appearance, 15 hrs. [5]: (4); iodide ion concentration, 15 hrs. [5]: 40.60 mg I' per ml; pH, 15 hrs. [5]: 2.65; Appearance, initial [5]: (1); iodide ion concentration, initial [5]: 0.66 mg I' per ml; pH, initial [5]: 6.54; Toxicity, LD50, i.p. (mice [6]): 4800 mg I/kg
O=S(=O)(CI)NC(CO)CO [Compound I, iodomethanesulfonic acid αγ-dihydroxyisopropylamide] |  |  |  |  | 89 | 385 | 4700 | 
CNC(=O)c1c(I)c(NC(=O)CCCCC(=O)Nc2c(I)c(C(=O)O)c(I)c(C(=O)NC)c2I)c(I)c(C(=O)O)c1I [Compound K, 5,5'-adipoyldiimino-bis-(2,4,6-triiodo-N-methyl-isophthalamic acid)] |  |  |  |  | 37 | 280 | 5500 | 
CC(=O)Nc1c(I)c(C(=O)N(C)CC(O)CO)c(I)c(C(=O)N(C)CC(O)CO)c1I (stereo not shown) [G, 5-acetylamino-2,4,6-triiodo-isophthalic acid di-(N-methyl-2,3-dihydroxypropylamide)] |  | 550 (≈ 710 mM) |  |  | 81 | 820 | 15700 | 

Second part, led by results:

Solubility in water (in words) [1] | solubility [1, 10] [mg/mL] | solubility [1, 11] [mg/mL] | solubility [1, 12] [mg/mL] | Compound | Toxicity, LD50, i.ci. (rabbits) [mg I/kg] | Toxicity, LD50, i.ce. (mice [6]) [mg I/kg] | Toxicity, LD50, i.v. (mice [6]) [mg I/kg] | also measured
very easily soluble in water | 157 | 210 | 400 | C[C@H](O)C(=O)Nc1c(I)c(C(=O)NCC(O)CO)c(I)c(C(=O)NCC(O)CO)c1I (mixture of isomers) [Compound C, L-5-α-hydroxypropionylamino-2,4,6-triiodo-isophthalic acid di-(DL-2,3-dihydroxypropyl-amide)] |  |  |  | Solubility in ethanol (in words) ([2]; ethanol): somewhat less soluble in ethanol
somewhat less soluble than Compound C | 140 | 200 | 340 | CC(O)C(=O)Nc1c(I)c(C(=O)NCC(O)CO)c(I)c(C(=O)NCC(O)CO)c1I (mixture of isomers) [Compound D, 5-DL-α-Hydroxypropionylamino-2,4,6-triiodo-isophthalic acid di-(DL-2,3-dihydroxypropylamide)] |  |  |  | Solubility in water at 20° C ([1]; 20° C): 14 g/100 ml; Solubility in water at 40° C ([1]; 40° C): 20 g/100 ml; Solubility in water at 60° C ([1]; 60° C): 34 g/100 ml
good solubility in warm water |  |  |  | O=C(NC(CO)CO)c1c(I)c(NC(=O)C(O)CO)c(I)c(C(=O)NC(CO)CO)c1I (racemic) [DL-5-α,β-dihydroxypropionylamino-2,4,6-triiodo-isophtalic acid di-(1,3-dihydroxyisopropylamide)] |  |  |  | Stability of supersaturated solutions ([3]; 37° C, water): stable for several hours at 37 °C
poor solubility | 5 (≈ 6.69 mM) | 8 (≈ 10.7 mM) | 15 (≈ 20.1 mM) | CC(=O)Nc1c(I)c(C(=O)NCC(O)CO)c(I)c(C(=O)NCC(O)CO)c1I (stereo not shown) [Compound F, 5-acetylamino:2,4,6-triiodo-isophthalic acid di-(2,3-dihydroxypropylamide), reference compound] |  |  |  | 
poor solubility | 2 (≈ 2.68 mM) |  | 5 (≈ 6.69 mM) | CC(=O)Nc1c(I)c(C(=O)NC(CO)CO)c(I)c(C(=O)NC(CO)CO)c1I [E, 5-acetylamino-2,4,6-triiodo-isophthalic acid di-(1,3-dihydroxisopropylamide), reference compound] |  |  |  | 
